Literature values in patent US20090175934A1, “Extended Release Pharmaceutical Formulation of Venlafaxine and Method of Manufacturing the Same” (Jubilant Organosys Ltd., priority 2006, published 2009).
Counter-ions that a name gives are not always drawn.

Columns and labels:
[1] = tested on: patients; settings: plural daily dosing regimen
[2] = compressed tablets, therapeutic dosing

Structure (SMILES): COc1ccc(C(CN(C)C)C2(O)CCCCC2)cc1 (stereo not drawn) [Venlafaxine hydrochloride]
- patients experiencing nausea [1]: about forty five percent
- patients in whom vomiting occurs [1]: about seventeen percent
- time until sub-therapeutic plasma levels are approached following administration [2]: about twelve hours
